# Legend:
# [1] = tested on: SW620 cells; experiment: Multiplexed quantitative global proteomics, specificity of SOS1 degradation; format: cell-based; conditions: 1 μM, 24 hours, vs DMSO
# Description: Sample Preparation: Approximately 10 millions of SW620 cells were treated with 1 μM P7 or 0.2% DMSO for 24 hours, respectively. Triplicate samples for each condition were provided as cell pellets. Cells were lysed in denaturing lysis buffer containing 8M urea, 20 mM HEPES (pH 8), 1 mM sodium orthovanadate, 2.5 mM sodium pyrophosphate and 1 mM β-glycerophosphate. A Bradford assay was carried out to determine the protein concentration. The proteins were reduced with 4.5 mM DTT and alkylated with 10 mM iodoacetamide. Trypsin digestion was carried out at room temperature overnight, and tryptic peptides were then acidified with 1% trifluoroacetic acid (TFA) and desalted with C18 Sep-Pak cartridges according to the manufacturer's procedure. TMT Labeling: 100 μg of peptide from each sample was labeled with TMTPro16plex reagent. The label incorporation was checked by LC-MS/MS and spectral counting. […] The samples were then pooled and lyophilized. High pH Reversed Phase Peptide Separation: After lyophilization, the peptides were re-dissolved in 250 μL of 20 mM ammonium formate (pH 10.0). […]
# Data Analysis: MaxQuant (version 1.6.14.0)^54 was used to identify proteins and quantify the TMT reporter ion intensities with default settings. […] Samples were normalized within-plex using the Moffitt standard proteomics normalization pipeline iterative rank-order normalization (IRON).^55 Median sample was determined to be Plex_1_TMT-131, DMSO_2. […] Log2 ratios were calculated as the difference between average treatment—average DMSO. P-values were calculated using Welch's 2-sided T-tests, assuming unequal variance. Differentially abundant proteins were determined by having a log 2 ratio ≥2 standard deviations from the mean (+0.1089/−0.1131) and a P-value <0.05. […]
# [2] = tested on: Annexin V; experiment: Annexin V expression by IHC in CRC patient-derived organoid models; format: cell-based, human; conditions: MCC19990-010 and MCC19990-013 PDOs, 1 μM, 24 hours, vs DMSO
# Description: To one or two confluent wells of organoids was added 1:5 diluted 500 μL of 5 units/mL dispase in HBSS (StemCell: 07913) and incubated at 37° C. in 5% CO2 atmosphere. Organoids were harvested and transferred to a 1.5 mL Eppendorf tube. The pellet was collected after centrifugation at 1500 rpm for 6 min, and washed with 1×PBS. The pellet was resuspended in 1 mL of 4% PFA and incubated at 4° C. overnight. The pellet was resuspended in 100 μL of 37° C. warmed histogel, centrifuged at 1000 rpm for 30 seconds to settle the organoids. The gel was allowed to polymerize at 4° C. for 10 minutes and then the plug was transferred to a 5 mL tube containing 2 mL 70% ethanol, and sent to the histology lab. Organoids were paraffin-embedded and subjected to serial sections for hematoxylin and eosin staining and immunohistochemistry following a common procedure at the histology lab. The slides/sections were cut at 4 micron thickness using a Leica RM2245 microtome. Charged slides were used.
# Immunohistochemical staining of SOS1 on organoids: Slides were stained using a Ventana Discovery Ultra automated system (Ventana Medical Systems, Tucson, AZ) as per manufacturer's protocol with proprietary reagents. Briefly, slides were deparaffinized on the automated system with Discovery Wash Solution (Ventana). Heat-induced antigen retrieval method was used in Cell Conditioning 1 Mild (Ventana). […]
smiles,measurement,setting,value
"COc1cc2c(N[C@H](C)c3cc(N)cc(C(F)(F)F)c3)nc(C)nc2cc1OCC(=O)Nc1cccc2c1CN(C1CCC(=O)NC1=O)C2=O (stereo partly drawn) [P7, 2-((4-(((R)-1-(3-amino-S-(trifluoromethyl)phenyl)ethyl)amino)-6-methoxy-2-methylquinazolin-7-yl)oxy)-N-(2-(2,6-dioxopiperidin-3-yl)-1-oxoisoindolin-4-yl)acetamide]",Change in SOS1 protein abundance (specificity of degradation),[1],among the most degraded proteins
same,Degradation of GSPT1 and zinc finger transcription factors IKZF1/3,[1],without cereblon-binding lenalidomide induced degradation
same,"Upregulated proteins (ABCG1, SCAP)",[1],significantly upregulated
same,Annexin V expression by IHC,[2],increased membranous expression of Annexin V

# — patent US20260085058A1, “DEGRADERS OF SON OF SEVENLESS HOMOLOG 1” (H. LEE MOFFITT CANCER CENTER AND RESEARCH INSTITUTE, INC., priority 2022, published 2026)
